Data taken from patent US9556226B2, “Peptides with antifungal activity and methods of using the peptides” (THE BOARD OF TRUSTEES OF THE UNIVERSITY OF ARKANSAS, priority 2013, dated 2017).
Read-outs that look alike come from different tables or passages of the source. Bridge positions count the residues as written; N and C are the ends. Square brackets hold non-standard residues; d marks the D form. Peptide text beside a SMILES is read from it. I, II: the chains in the order shown.

System: Candida albicans SC5314
Format: cell-based
Details: for percent of C. albicans killed at 5 μM concentration: SC5314, 5
Description: Killing assays. The fungicidal activity of the peptides toward Candida albicans was examined by microdilution plate assay as described previously (13). Briefly, from a fresh overnight cultured plate, a single colony was inoculated and diluted in 1 ml of 10 mM sodium phosphate buffer at pH 7.4. Once cell counts had been confirmed by using a hemocytometer, the cells diluted within the same buffer at 1.8×10^5 cells/mil. Cell suspensions of 20 μl were mixed with 20 μl of peptide, which were dissolved in 10 mM sodium phosphate buffer at pH 7.4, and then incubated for 2 hours at 37° C. with shaking at speeds of 550 rpm. The reactions were stopped by the addition of 360 μl yeast nitrogen base (YNB) and then 40 μl of cell suspension was spread onto plates and incubated for 24 hours at 37° C. Sabouraud dextrose agar plates were used for C. albicans killing assay. The number of colony-forming units (CFUs) was counted and each assay was repeated in triplicate. Loss of viability was calculated as [1-(colonies from suspension with peptide/colonies from suspension with no peptide)]×100. For the respiratory activity experiments, Candida albicans was grown in the presence of sodium azide or antimycin A (Sigma Aldrich) before the killing assay was performed.

| SMILES | Percent killing activity at 25 μM concentration (SC5314, 25) [%] | antifungal activity relative to comparator peptides (in words) (Candida albicans SC5314) | also measured |
| --- | --- | --- | --- |
| CC(=O)N[C@@H](Cc1ccccc1)C(=O)N[C@@H](CCCCN)C(=O)N[C@@H](CCCNC(=N)N)C(=O)N[C@@H](CCCCN)C(=O)N[C@@H](Cc1ccccc1)C(N)=O [KM9, FKRKF] (Ac-FKRKF-NH2) | 70 |  |  |
| CC(=O)N[C@@H](CS)C(=O)N[C@@H](Cc1ccccc1)C(=O)N[C@@H](CCCCN)C(=O)N[C@@H](CCCNC(=N)N)C(=O)N[C@@H](CCCCN)C(=O)N[C@@H](Cc1ccc(O)cc1)C(N)=O [KM11, C-F-K-R-K-Y] (Ac-CFKRKY-NH2) | 95 | did not alter its antifungal activity |  |
| CC(=O)N[C@H](Cc1ccccc1)C(=O)N[C@H](CCCCN)C(=O)N[C@H](CCCNC(=N)N)C(=O)N[C@H](CCCCN)C(=O)N[C@H](Cc1ccc(O)cc1)C(N)=O [KM6, dF-dK-dR-dK-dY] (Ac-[dF][dK][dR][dK][dY]-NH2) |  | equivalent antifungal activity |  |
| CC(=O)N[C@@H](Cc1ccccc1)C(=O)N[C@@H](CCCCN)C(=O)N1CCC[C@H]1C(=O)N[C@@H](CCCCN)C(=O)N[C@@H](Cc1ccc(O)cc1)C(N)=O [KM7, FKPKY] (Ac-FKPKY-NH2) | 3 |  |  |
| CC(=O)N[C@@H](CCCCN)C(=O)N[C@@H](Cc1ccccc1)C(=O)N[C@@H](CCCNC(=N)N)C(=O)N[C@@H](Cc1ccc(O)cc1)C(=O)N[C@@H](CCCCN)C(N)=O [KM10, KFRYK] (Ac-KFRYK-NH2) | 55 |  |  |
| CC(=O)N[C@@H](Cc1ccccc1)C(=O)N[C@@H](CCCCN)C(=O)N[C@@H](CSSC[C@H](NC(=O)[C@H](CCCCN)NC(=O)[C@H](Cc1ccccc1)NC(C)=O)C(=O)N[C@@H](CCCNC(=N)N)C(=O)N[C@@H](CCCCN)C(=O)N[C@@H](Cc1ccc(O)cc1)C(N)=O)C(=O)N[C@@H](CCCNC(=N)N)C(=O)N[C@@H](CCCCN)C(=O)N[C@@H](Cc1ccc(O)cc1)C(N)=O [KM16, F-K-C-R-K-Y] (I: Ac-FKCRKY-NH2 / II: Ac-FKCRKY-NH2; disulfide I:3-II:3) |  | very promising antifungal activity compatible with that of KM12 and KM14 | percent of C. albicans killed at 5 μM concentration: > 90% |
| CC(=O)N[C@@H](Cc1ccccc1)C(=O)N[C@@H](CCCCN)C(=O)N[C@@H](CO)C(=O)N[C@@H](CCCCN)C(=O)N[C@@H](Cc1ccc(O)cc1)C(N)=O [KM8, FKSKY] (Ac-FKSKY-NH2) | 0 |  |  |
| CC(=O)N[C@H]1CSSC[C@@H](C(N)=O)NC(=O)[C@H](Cc2ccc(O)cc2)NC(=O)[C@H](CCCCN)NC(=O)[C@H](CCCNC(=N)N)NC(=O)[C@H](CCCCN)NC(=O)[C@H](Cc2ccccc2)NC1=O [KM17, C-F-K-R-K-Y-C] (Ac-CFKRKYC-NH2; disulfide 1-7) |  | very promising antifungal activity compatible with that of KM12 and KM14 | percent of C. albicans killed at 5 μM concentration: > 90% |
| CC(=O)N[C@@H](Cc1ccccc1)C(=O)N[C@@H](CCCCN)C(=O)N[C@@H](CCCNC(=N)N)C(=O)N[C@@H](CCCCN)C(=O)N[C@@H](Cc1ccc(O)cc1)C(N)=O [KM5, F-K-R-K-Y] (Ac-FKRKY-NH2) |  |  | Percent killing activity at 25 μM concentration (25 μM peptide, Candida albicans SC5314): 85%; LD50 (dose of peptide required to achieve 50% killing) (Candida albicans SC5314, 2 hours at 37° C., calculated using a linear regression equation): 5 µM |
